Assay results as given in EP3693362B1, “PARASITIC PLANT GERMINATION REGULATOR” (National University Corporation Tokai National Higher …, priority 2017, dated 2019).
Like-named read-outs stand apart in the source and are kept apart here.

What was measured:
[1] = target: T1, HTL2 (Striga hermonthica, UniProt A0A0M4AMP1); assay: Affinity for strigolactone receptor, YLG probe competition (fluorescence); format: binding; conditions: competition with YLG, test range 0.01 to 10 µM, pH 7.0, read-out: IC50 values of test compounds
T1 sequence (A0A0M4AMP1 1-285): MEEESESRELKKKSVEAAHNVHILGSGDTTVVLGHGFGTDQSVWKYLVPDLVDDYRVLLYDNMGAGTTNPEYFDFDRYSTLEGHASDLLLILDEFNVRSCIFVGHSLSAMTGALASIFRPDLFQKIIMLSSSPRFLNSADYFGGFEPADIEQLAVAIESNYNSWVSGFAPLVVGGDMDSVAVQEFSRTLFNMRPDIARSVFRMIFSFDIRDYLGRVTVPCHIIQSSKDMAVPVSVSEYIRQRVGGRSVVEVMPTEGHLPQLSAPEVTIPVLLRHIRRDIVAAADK
Method: (§1) PTL 1 reports that the affinity of a test compound for the strigolactone receptor can be evaluated by reacting strigolactone with a probe for evaluation of affinity for a strigolactone receptor (e.g., YLG) in the presence of the test compound, and measuring the fluorescence emitted from the decomposition product of YLG. Therefore, the compounds synthesized in Example 1 were used as the test compounds, and the affinity for the strigolactone receptor was evaluated by a similar method to the above. The details are as follows.
(§2) An Arabidopsis thaliana strigolactone receptor (AtD14) was produced in accordance with a usual method. More specifically, cDNA of the receptor was obtained by RT-PCR, and expression and purification were carried out in E. coli. Additionally, Striga strigolactone receptors were produced by the method disclosed in PTL 1 (ShHTL1: amino acid SEQ ID NO: 1, ShHTL2: amino acid SEQ ID NO: 2, ShHTL3: amino acid SEQ ID NO: 3, ShHTL4: amino acid SEQ ID NO: 4, ShHTL5: amino acid SEQ ID NO: 5, ShHTLS: amino acid SEQ ID NO: 6, ShHTL7: amino acid SEQ ID NO: 7, ShHTLS: amino acid SEQ ID NO: 8, ShHTL9: amino acid SEQ ID NO: 9, ShHTL10: amino acid SEQ ID NO: 10, and ShHTL11: amino acid SEQ ID NO: 11.)
(§3) One hundred microliters of a reaction solution containing each of the obtained strigolactone receptors ([…]), YLG (final concentration: […]), and each of the test compounds (final concentration: 0.01 to 10 µM) or the control compound (5-deoxystrigol, final concentration: 0.01 to 10 µM) as a competitive compound (100 mM HEPES, 150 mM NaCl, pH: 7.0, 0.1% DMSO) was prepared and reacted in a 96 black-well plate (Greiner). Sixty after the initiation of the reaction, fluorescence was detected at an excitation wavelength of 480 nm and a detection wavelength of 520 nm using a fluorescence detector (SpectraMax i3, manufactured by Molecular Devices), and the fluorescence intensity was measured. Based on the measurement results of fluorescence intensity, a Lineweaver-Burk plot was created to calculate the Km values, and the IC50 values of each of the test compounds and the control compound, which are competitive compounds.
(§4) In Table 7, HTL1 to HTL11 refer to strigolactone receptors (SEQ ID NOs: 1 to 11), and AtD14 refer to the Arabidopsis thaliana strigolactone receptor.

[2] = target: T2, HTL3 (Striga hermonthica, UniProt A0A0M3PN85); assay: as above; format: binding; conditions: competition with YLG, test range 0.01 to 10 µM, pH 7.0, read-out: IC50 values of test compounds
T2 sequence (A0A0M3PN85 1-276): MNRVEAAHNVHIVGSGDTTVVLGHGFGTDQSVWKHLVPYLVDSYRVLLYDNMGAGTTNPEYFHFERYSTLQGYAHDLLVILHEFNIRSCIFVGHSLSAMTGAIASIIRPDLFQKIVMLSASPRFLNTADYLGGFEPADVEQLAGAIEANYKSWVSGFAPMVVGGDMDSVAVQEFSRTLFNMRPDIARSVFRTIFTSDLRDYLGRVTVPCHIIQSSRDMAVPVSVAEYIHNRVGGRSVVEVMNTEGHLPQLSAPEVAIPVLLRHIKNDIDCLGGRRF
Method: as §1, §2, §3, §4

[3] = target: T3, AtD14 (Arabidopsis thaliana, UniProt Q9SQR3); assay: as above; format: binding
T3 construct: made in house; host or cells: E. coli
T3 sequence (Q9SQR3 1-267): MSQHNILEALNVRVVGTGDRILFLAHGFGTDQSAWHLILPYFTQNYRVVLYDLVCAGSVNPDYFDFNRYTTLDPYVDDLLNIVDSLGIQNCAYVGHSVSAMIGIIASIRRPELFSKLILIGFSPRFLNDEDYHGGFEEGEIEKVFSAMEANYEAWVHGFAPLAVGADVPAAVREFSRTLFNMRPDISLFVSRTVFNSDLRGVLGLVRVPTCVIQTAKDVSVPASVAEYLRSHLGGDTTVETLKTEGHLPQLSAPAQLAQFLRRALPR
Excerpt: as §1, with “Therefore, the compounds synthesized in Example 1 were used as the test compounds, and the affinity for the strigolactone receptor was evaluated by a similar method to the above.” left out
as §2
as §3, with “measured.” for “measured. Based on the measurement results of fluorescence intensity, a Lineweaver-Burk plot was created to calculate the Km values, and the IC50 values of each of the test compounds and the control compound, which are competitive compounds.”

[4] = system: Striga hermonthica; assay: Parasitic plant germination induction test (Striga hermonthica seeds); format: in vivo; conditions: in the dark for 2 days; for Germination rate 0.1 nM: compound concentration 0.1 nM; for Germination rate 1 nM: compound concentration 1 nM; for Germination rate 10 nM: compound concentration 10 nM
Method: A parasitic plant germination induction test was conducted using the compounds synthesized in Example 1 as test compounds. The seeds of a parasitic plant (Striga hermonthica, Orobanche minor, or Phelipanche aegyptiaca) were suspended in sterilized ultrapure water, and this was dispensed in an amount of 100 µL each (containing about 20 seeds) into a 96-well plate. The test compounds or control compounds (Comparison Compound 1 or synthetic Strigolactone (GR^24: Comparison Compound 2)) dissolved in DMSO were individually added thereto to a final concentration of these compounds of 10 nM to 1 fM (1 × 10^-8 to 1 × 10^-15 M), and allowed to stand in the dark for 2 days. The presence or absence of germination was observed using a microscope, and the germination rate (i.e., number of germinated seeds/total number of seeds) was measured. The higher the germination rate in the parasitic plant germination induction test, or the higher the germination rate at lower concentration, the higher the Striga germination inducing activity.
In Tables 1 to 6, the concentrations (10 nM, 1 nM, and 0.1 nM) represent compound concentrations. In Tables 1-6, the evaluation criteria for the compounds are as follows: • ++: germination rate of 20% or more • +: germination rate of 5% or more and less than 20% • -: germination rate of less than 5% Table 1

[5] = AtD14, competition with YLG, test range 0.01 to 10 µM, pH 7.0, read-out: IC50 values of test compounds

Row | SMILES | IC50 [1] [µM] | IC50 [2] [µM] | IC50 [3, 5] [µM] | Germination rate 0.1 nM [4] | Germination rate 1 nM [4] | Germination rate 10 nM [4] | IC50 [3] [µM]
1 | CC1=CC(OC=C2C(=O)OC3C4=C(CCCC4(C)C)CC23)OC1=O (centres unmarked) [5-Ddeoxystriqol, 5-deoxystrigol, reference compound] | 8.9 | 9.3 | 0.44 |  |  |  | 
2 | CC1=CC(OC(=O)NCc2ccccc2)OC1=O (centres unmarked) [Comparison Compound 1, reference compound] | > 10 | > 10 |  | - (germination rate of less than 5%) | - (germination rate of less than 5%) | - (germination rate of less than 5%) | 
3 | CCCCOc1ccc(S(=O)(=O)N2CCN(C(=O)OC3C=C(C)C(=O)O3)CC2)cc1 (centres unmarked) [Compound 1] | > 10 | > 10 |  | ++ (germination rate of 20% or more) | ++ (germination rate of 20% or more) | ++ (germination rate of 20% or more) | > 10
4 | CCCCOc1ccc(S(=O)(=O)N2CCN(C(=O)OC3C=CC(=O)O3)CC2)cc1 (centres unmarked) [Compound 13] | > 10 | 2 | > 10 | + (germination rate of 5% or more and less than 20%) | ++ (germination rate of 20% or more) | ++ (germination rate of 20% or more) | 
